Assay results taken from ChEMBL document CHEMBL6177960, “Rational design, optimization, and biological evaluation of novel pyrrolo-pyridone derivatives as potent and orally active Cbl-b inhibitors” (Eur J Med Chem, 2025).

molecular target: E3 ubiquitin-protein ligase CBL-B (Homo sapiens, UniProt Q13191); assay: Binding affinity to Cbl-b (unknown origin) assessed as inhibition constant incubated for 60 mins by TR-FRET assay
Sequence (Q13191 whole entry): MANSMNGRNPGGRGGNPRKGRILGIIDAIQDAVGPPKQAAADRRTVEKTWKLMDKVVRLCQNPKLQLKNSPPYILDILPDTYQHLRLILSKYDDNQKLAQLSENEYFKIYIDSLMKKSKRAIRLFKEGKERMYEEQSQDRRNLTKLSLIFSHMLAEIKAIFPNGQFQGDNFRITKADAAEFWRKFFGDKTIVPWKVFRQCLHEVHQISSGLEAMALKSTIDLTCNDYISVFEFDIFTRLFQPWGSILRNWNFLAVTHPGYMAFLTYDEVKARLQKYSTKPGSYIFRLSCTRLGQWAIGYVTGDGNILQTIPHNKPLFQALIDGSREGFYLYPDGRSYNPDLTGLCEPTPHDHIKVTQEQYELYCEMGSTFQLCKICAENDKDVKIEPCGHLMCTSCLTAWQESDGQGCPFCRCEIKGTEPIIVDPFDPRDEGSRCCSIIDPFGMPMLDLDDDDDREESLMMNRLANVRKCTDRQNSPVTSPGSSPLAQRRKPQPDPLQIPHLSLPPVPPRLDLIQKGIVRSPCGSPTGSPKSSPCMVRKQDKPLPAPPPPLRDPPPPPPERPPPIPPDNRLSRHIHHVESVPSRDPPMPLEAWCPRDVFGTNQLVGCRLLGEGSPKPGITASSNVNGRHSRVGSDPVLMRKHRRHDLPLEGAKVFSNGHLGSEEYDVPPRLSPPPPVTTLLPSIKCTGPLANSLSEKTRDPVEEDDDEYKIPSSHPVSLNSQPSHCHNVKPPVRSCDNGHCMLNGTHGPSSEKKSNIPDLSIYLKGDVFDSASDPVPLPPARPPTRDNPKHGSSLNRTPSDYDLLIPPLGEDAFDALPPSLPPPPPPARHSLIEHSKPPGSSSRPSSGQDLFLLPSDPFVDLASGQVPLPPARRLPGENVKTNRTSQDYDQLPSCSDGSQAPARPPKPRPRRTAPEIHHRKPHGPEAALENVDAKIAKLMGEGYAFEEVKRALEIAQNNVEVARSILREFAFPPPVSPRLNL

SMILES	Ki
C[C@H]1CCCN(Cc2cc3c(C(F)(F)F)cn(-c4cccc(C5(c6nncn6C)COC5)c4)c(=O)c3[nH]2)C1	5.29 nM
C[C@H]1CCCN(Cc2cc3c(S(C)(=O)=O)cn(-c4cccc(C5(Cc6nncn6C)COC5)c4)c(=O)c3[nH]2)C1	14.2 nM
C[C@H]1CCCN(Cc2cc3c(C4CC4)cn(-c4cccc(C5(C(F)c6nncn6C)CC(F)(F)C5)c4)c(=O)c3[nH]2)C1 (stereo partly drawn)	2.34 nM
C[C@H]1CCCN(Cc2cc3c(C4CC4)cn(-c4cccc(C5(c6nncn6C)CC6(CC6)C5)c4)c(=O)c3[nH]2)C1	1.58 nM
C/C=C1\C[C@@](c2cccc(-n3cc(C(F)(F)F)c4cc(CN5CCC[C@H](C)C5)[nH]c4c3=O)c2)(c2nncn2C)C1 (stereo partly drawn)	2.89 nM
C[C@H]1CCCN(Cc2cc3c(C(F)(F)F)cn(-c4cccc(C5(Cc6nncn6C)COC5)c4)c(=O)c3[nH]2)C1	1.98 nM
CO[C@H]1C[C@](c2cccc(-n3cc(C(F)(F)F)c4cc(CN5CCC[C@H](C)C5)[nH]c4c3=O)c2)(c2nncn2C)C1	1.68 nM
C[C@H]1CCCN(Cc2cc3c(C4CC4)cn(-c4cccc(C5(Cc6nncn6C)CC(F)(F)C5)c4)c(=O)c3[nH]2)C1	1.68 nM
C[C@H]1CCCN(Cc2cc3c(C4CC4)cn(-c4cccc([C@@H](c5nncn5C)C5CCC5)c4)c(=O)c3[nH]2)C1	38.2 nM
Cc1cn(-c2cccc(C3(Cc4nncn4C)COC3)c2)c(=O)c2[nH]c(CN3CCC[C@H](C)C3)cc12	2.36 nM
C[C@H]1CCCN(Cc2cc3c(C(F)(F)F)cn(-c4cccc([C@]5(c6nncn6C)C[C@H](OC(F)(F)F)C5)c4)c(=O)c3[nH]2)C1	1.54 nM
C[C@H]1CCCN(Cc2cc3ccn(-c4cccc(C5(Cc6nncn6C)COC5)c4)c(=O)c3[nH]2)C1	18 nM
C[C@H]1CCCN(Cc2cc3c(Br)cn(-c4cccc(C5(Cc6nncn6C)COC5)c4)c(=O)c3[nH]2)C1	2.79 nM
C[C@H]1CCCN(Cc2cc3c(C(F)(F)F)cn(-c4cccc([C@@H](c5nncn5C)C5CCC5)c4)c(=O)c3[nH]2)C1	3.67 nM
C[C@H]1CCCN(Cc2cc3c(C(F)(F)F)cn(-c4cccc(-c5ccccc5-c5nncn5C)c4)c(=O)c3[nH]2)C1	7.04 nM

Now those with a lower Ki, led by results:

Ki	SMILES
1.25 nM	C[C@H]1CCCN(Cc2cc3c(C(F)(F)F)cn(-c4cccc([C@]5(c6nncn6C)C[C@@H](F)C5)c4)c(=O)c3[nH]2)C1
1.41 nM	C[C@H]1CCCN(Cc2cc3c(C(F)(F)F)cn(-c4cccc([C@]5(c6nncn6C)C[C@H](F)C5)c4)c(=O)c3[nH]2)C1
0.74 nM	C[C@H]1CCCN(Cc2cc3c(C(F)(F)F)cn(-c4cccc(C5(Cc6nncn6C)CC(F)(F)C5)c4)c(=O)c3[nH]2)C1
1.02 nM	C[C@H]1CCCN(Cc2cc3c(C(F)(F)F)cn(-c4cccc(C5(c6nncn6C)CCC5)c4)c(=O)c3[nH]2)C1
0.83 nM	C[C@H]1CCCN(Cc2cc3c(C(F)(F)F)cn(-c4cccc([C@H](c5nncn5C)C5CCC5)c4)c(=O)c3[nH]2)C1
1.43 nM	C[C@H]1CCCN(Cc2cc3c(C4CC4)cn(-c4cccc(C5(Cc6nncn6C)COC5)c4)c(=O)c3[nH]2)C1
1.39 nM	CO[C@H]1C[C@@](c2cccc(-n3cc(C(F)(F)F)c4cc(CN5CCC[C@H](C)C5)[nH]c4c3=O)c2)(c2nncn2C)C1
0.8 nM	C[C@H]1CCCN(Cc2cc3c(C(F)(F)F)cn(-c4cccc(C5(c6nncn6C)CC6(CC6)C5)c4)c(=O)c3[nH]2)C1
1.34 nM	C[C@H]1CCCN(Cc2cc3c(C(F)(F)F)cn(-c4cccc([C@]5(c6nncn6C)C[C@@H](OC(F)(F)F)C5)c4)c(=O)c3[nH]2)C1
1.22 nM	CC[C@H]1C[C@](c2cccc(-n3cc(C(F)(F)F)c4cc(CN5CCC[C@H](C)C5)[nH]c4c3=O)c2)(c2nncn2C)C1
1.14 nM	CC[C@H]1C[C@@](c2cccc(-n3cc(C(F)(F)F)c4cc(CN5CCC[C@H](C)C5)[nH]c4c3=O)c2)(c2nncn2C)C1
1.18 nM	C[C@H]1CCCN(Cc2cc3c(C(F)(F)F)cn(-c4cccc(C5(c6nncn6C)CC(F)(F)C5)c4)c(=O)c3[nH]2)C1
1.4 nM	C[C@H]1CCCN(Cc2cc3c(C4CC4)cn(-c4cccc([C@H](c5nncn5C)C5CCC5)c4)c(=O)c3[nH]2)C1
